Key:
dairy cow [1] = assay: Delta ITP at dry-off, IM study with the same total dose (comparative); type: in vivo; details: same total dose by IM route, n=130
dairy cow [2] = assay: Previous IM dose-effect study of cabergoline on milk production reduction (comparative); type: in vivo; details: extrapolation of the dose-effect relationship to an IM dose of 7.5 μg/kg
Text: The obtained results are the following:

dairy cow [3] = assay: Field-controlled study (n=106), IM route, decrease of milk production; type: in vivo
Method: Extrapolation of the dose-effect relationship, with an IM dose of 7.5 μg/kg gave a predicted effect on milk production reduction of −43%.

[4] = Blood calcium concentration after IMM cabergoline at dry-off (Example 2.3); type: in vivo, cow
Text: (§1) 10 lactating cows (9 Prim'holstein and 1 Brown Swiss) were included in this study.
No feed restriction was put in place within the 3 weeks preceding the D0 dry-off and after. Animal had free access to water and hay throughout the study. Each cow was given 7 kg/day of an antibiotic free concentrate feed for lactating cow until D0 dry off. After dry-off each cow was given 7 kg/day of an antibiotic free concentrate for growing cattle.

dairy cow [5] = assay: Inter-teat perimeter (ITP, udder engorgement) at dry-off, IMM study (Example 2); type: in vivo
Method: 10 lactating cows (9 Prim'holstein and 1 Brown Swiss) were included in this study. […] Animal had free access to water and hay throughout the study. Each cow was given 7 kg/day of an antibiotic free concentrate feed for lactating cow until D0 dry off. After dry-off each cow was given 7 kg/day of an antibiotic free concentrate for growing cattle. The composition of concentrate is given hereafter: At D0 dry-off, an abrupt milking cessation was performed. The inter-teat perimeter (ITP) was considered as a proxy of udder volume and engorgement, and was measured before treatment udder, both before and after milking, and then evenly after treatment until 9 days post-treatment.

[6] = Pharmacokinetics of cabergoline in plasma after IM administration, 5.6 mg/cow (comparative study); type: in vivo; details: bovine, n=6, plasma
[7] = Pharmacokinetics of cabergoline in plasma after IMM administration (Example 2.2); type: in vivo, cow; details: female, Prim'holstein and Brown Swiss, bovine, 5.4 mg/udder, n=5, plasma
Text: as §1

[8] = Blood calcium concentration after IM cabergoline 5.6 mg/cow (previous studies); type: in vivo; details: versus negative control group
Method: Said studies were conducted in comparison versus a negative control group, and blood calcium decrease was monitored and well identified: A calcium decrease was observed as soon as 2 to 3 hours post-treatment, maximal between 6 and 12 hours and return to normal after 24 hours.
It is important to note that, in the study of example 2, the benefit regarding a less decrease of blood calcium concentration was obtained, despite a less quantity of calcium supplied by food, when compared to the IM studies 1 and 2. In these last 2 IM studies, 150 g of calcium/day/cow was provided through a total or partial mixed ration, whereas in the IMM study of example 2 only 50 g of calcium was provided via the concentrate (7 kg/day/cow at 0.7% of Ca) and a remaining part via the hay given ad libidum. Although the exact quantity of Ca provided by the hay was unknown, it was surely less than in the 2 IM studies, because, • i) the content of calcium in the hay is generally lower than concentrates, usually around 0.3% • ii) the actual hay dry matter intake could be estimated around 13 to 15 kg for the cows included in example 2

[9] = test system: Prim'holstein lactating cows; assay: Cabergoline effect by intramammary (IMM) route on milk production, milking continuation context (Example 1); type: in vivo; details: IMM 1.34 mg/quarter in all 4 quarters (5.4 mg/cow, ~7.5 μg/kg) after evening milking D4; n=5; printed as minus 6 L
Method: The cabergoline composition is a solution comprising cabergoline with dimethyl sulfoxide and medium-chain triglycerides, as excipients.
5 Prim'holstein lactating cows were included in the study, with the following characteristics: • Multiparous: parity 2 to 4 • Daily milk yield (L): 17.4+/−2.8 • Days in milk (d): 251+/−51 • Body weight (kg): 686+/−29
Cabergoline was administered as an oily solution as described above, with an intramammary cannula inserted into the teat canal and fitted to the tip of a syringe containing the solution. A volume of 10 mL was directly deposited into the udder cistern of each quarter.
Cows were milked twice a day, morning and evening, at around 07 am and 05 pm respectively.
Milk production (morning milking) was measured during the days before (baseline) and after treatment.
The 5 cows were treated with a dose 1.34 mg/quarter in all 4 quarters (total dose 5.4 mg/cow, corresponding to ˜7.5 μg/kg when expressed according to kg body weight, after evening milking (D4), i.e. 15-20 minutes after the end of milking.

C=CCN1C[C@H](C(=O)N(CCCN(C)C)C(=O)NCC)C[C@@H]2c3cccc4[nH]cc(c34)C[C@H]21 [cabergoline, N-[3-(dimethylamino)propyl]-N-[(ethylamino)carbonyl]-6-(2-propenyl)-8g-ergoline-8-carboxamide]
Mean ΔITP at +24 h after treatment (dairy cow [1]): 9.2 cm
predicted effect on milk production reduction (dairy cow [2]): −43%
decrease of milk production, treated against negative controlled cows (dairy cow [3]): around −40%
decrease of blood calcium concentration in comparison with control cows, mean ([4]; IMM 1.34 mg/quarter in all 4 quarters, +6 hours time point only): -0.2 mmol/L
blood calcium concentration change at other time points ([4]; IMM, +3 h, +12 h, +24 h and onward): No decrease
ITP of treated cows versus control after dry-off (dairy cow [5]; IMM 1.34 mg/quarter in all 4 quarters, first 48 hours after treatment, FIG. 2): increased less than control
Mean ΔITP at +24 h after treatment (dairy cow [5]; IMM study, 1.34 mg/quarter in all 4 quarters at D0 dry-off, n=5): 8.3 cm
Mean ΔITP before/after milking, before treatment (dairy cow [5]; IMM study, cabergoline group n=5, baseline before treatment): 13.1 cm
AUC ([6]; read-out: AUCo-inf, mean (sd)): 2.49 ng·h/mL
Cmax ([6]; read-out: Cmax, mean (sd)): 0.15 ng/mL
MRT ([6]; read-out: MRT, mean (sd)): 22.7 h
Tmax ([6]; read-out: Tmax, mean (sd)): 3 h
AUC ([7]; read-out: AUCo-inf, mean (sd)): 4.75 ng·h/mL
Cmax ([7]; read-out: Cmax, mean (sd)): 0.114 ng/mL
MRT ([7]; read-out: MRT, mean (sd)): 36.3 h
Tmax ([7]; read-out: Tmax, mean (sd)): 8.4 h
time of return of blood calcium to normal [8]: > 24 h
drop of milk production at the next morning milking (D5), mean [9]: 6 L
